Test results: article PMC8357188 (Nature biomedical engineering, 2020)

Test system: porcine jejunum tissue
Experiment: GI-TRIS intestinal transport experiments
Format: in vitro ADME, pig

In the case of carbetocin acetate, the “increase in intestinal transport when formulated with polyethyleneimine” value is reported as “limited increase”.
